The values that follow come from US5527703A (Merck & Co., Inc., priority 1994, dated 1996).

For test [1], the system named is glutamate- and avermectin-sensitive chloride channel (C. elegans poly(A)+ RNA). As to the kind of experiment: Current in Xenopus oocytes injected with C. elegans poly(A)+ RNA. The class given is cell-based. The conditions noted are these: for type of drug-sensitive current: poly(A)+ RNA injected oocytes. Here is the method:
(§1) Xenopus laevis oocytes were prepared and injected using standard methods previously described and known in the art [Arena, J. P., Liu. K. K., Paress, P. S. & Cully. D. F. Mol. Pharmacol. 40, 368-374 (1991 ); Arena, J. P., Liu, K. K., Paress, P. S., Schaeffer, J. M. & Cully, D. F. Mol. Brain Res. 15, 339-348 (1992)]. Adult female Xenopus laevis were anesthetized with 0.17% tricaine methanesulfonate and the ovaries were surgically removed and placed in a dish consisting of (mM): NaCl 1 82.5, KCl 2. MgCl2 1, CaCl2 1.8, HEPES 5 adjusted to pH 7.5 with NaOH (OR-2). Ovarian lobes were broken open, rinsed several times, and gently shaken in OR-2 containing 0.2% collagenase (Sigma, Type 1A) for 2-5 hours. When approximately 50% of the follicular layers were removed, Stage V and VI oocytes were selected and placed in media consisting of (mM): NaCl 86, KCl 2, MgCl2 1, CaCl2 1.8, HEPES 5, Na pyruvate 2.5, theophylline 0.5, gentamicin 0.1 adjusted to pH 7.5 with NaOH (ND-96) for 24-48 hours before injection. Oocytes were injected with 50-70 nl of poly(A^+) RNA (1 mg/ml) or 50 nl of GluClα (0.1-100 ng) and/or GluClβ (0.1-100 ng). Control oocytes were injected with 50 nl of water. Oocytes were incubated for 2-10 days in ND-96 before recording. Incubations and collagenase digestion were carried out at 18° C.
Recordings were made at room temperature 2-10 days after injection. Unless otherwise indicated recordings were made in standard frog saline consisting of (mM): NaCl 115, KCl 2, MgCl2 1, CaCl2 1.8, HEPES 10 adjusted to pH 7.5 with NaOH. […] Data were acquired and analyzed using PCLAMP with a TL-1 interface (Axon Instruments, Foster City, Calif.). Membrane current at a holding potential of -80 mV was recorded. The amplitude of drug-sensitive current was determined by subtracting the holding current at -80 mV from the peak current obtained in the presence of drug. […] Current/voltage relationships (I/V) and reversal potentials (Erev) were determined using a 1-3 sec voltage ramp over the voltage range of -110 to +80 mV. […]

The next test has as its target T1, GluCl α&β (Caenorhabditis elegans, UniProt G5EBR3+Q17328).
T1 construct: the full-length open reading frame of the GluCl cDNA encoding the GluClα (52,550 kDa) and GluClβ (49,900kDa) subunits; expressed in transfected cells; host or cells: Xenopus laevis oocytes injected with in vitro RNA
T1 sequence (G5EBR3 21-461): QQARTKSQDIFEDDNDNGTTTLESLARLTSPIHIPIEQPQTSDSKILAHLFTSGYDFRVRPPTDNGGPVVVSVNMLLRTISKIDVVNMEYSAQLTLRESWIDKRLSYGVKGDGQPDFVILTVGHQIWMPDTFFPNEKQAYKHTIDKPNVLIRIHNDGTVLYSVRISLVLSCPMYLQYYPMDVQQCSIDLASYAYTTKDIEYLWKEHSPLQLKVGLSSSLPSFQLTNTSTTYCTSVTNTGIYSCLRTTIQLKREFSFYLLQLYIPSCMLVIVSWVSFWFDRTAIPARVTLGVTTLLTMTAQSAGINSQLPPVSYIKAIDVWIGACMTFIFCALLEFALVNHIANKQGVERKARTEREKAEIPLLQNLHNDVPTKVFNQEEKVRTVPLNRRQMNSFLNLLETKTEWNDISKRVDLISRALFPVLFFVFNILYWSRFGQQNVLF
T1 sequence (Q17328 23-434): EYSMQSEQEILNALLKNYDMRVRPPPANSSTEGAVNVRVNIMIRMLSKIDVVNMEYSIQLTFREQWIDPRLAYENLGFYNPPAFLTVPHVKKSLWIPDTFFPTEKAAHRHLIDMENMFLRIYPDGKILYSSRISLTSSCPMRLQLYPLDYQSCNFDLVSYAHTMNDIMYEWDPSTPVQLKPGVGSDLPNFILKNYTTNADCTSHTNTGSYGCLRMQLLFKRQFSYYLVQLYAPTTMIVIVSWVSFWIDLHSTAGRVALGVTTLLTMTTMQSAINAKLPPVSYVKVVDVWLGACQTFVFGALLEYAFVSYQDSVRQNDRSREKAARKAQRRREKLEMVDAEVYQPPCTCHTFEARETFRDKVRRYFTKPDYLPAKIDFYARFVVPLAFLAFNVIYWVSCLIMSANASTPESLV
As to the kind of experiment: Modulation of glutamate-sensitive current by IVMPO4, GluCl α&β injected oocytes. The class given is cell-based, C. elegans. As for the experimental part:
Xenopus laevis oocytes were prepared and injected using standard methods previously described and known in the art [Arena, J. P., Liu. K. K., Paress, P. S. & Cully. D. F. Mol. Pharmacol. 40, 368-374 (1991 ); Arena, J. P., Liu, K. K., Paress, P. S., Schaeffer, J. M. & Cully, D. F. Mol. Brain Res. 15, 339-348 (1992)]. Adult female Xenopus laevis were anesthetized with 0.17% tricaine methanesulfonate and the ovaries were surgically removed and placed in a dish consisting of (mM): NaCl 1 82.5, KCl 2. MgCl2 1, CaCl2 1.8, HEPES 5 adjusted to pH 7.5 with NaOH (OR-2). Ovarian lobes were broken open, rinsed several times, and gently shaken in OR-2 containing 0.2% collagenase (Sigma, Type 1A) for 2-5 hours. […]
Recordings were made at room temperature 2-10 days after injection. […] Data were acquired and analyzed using PCLAMP with a TL-1 interface (Axon Instruments, Foster City, Calif.). Membrane current at a holding potential of -80 mV was recorded. The amplitude of drug-sensitive current was determined by subtracting the holding current at -80 mV from the peak current obtained in the presence of drug. […] Current/voltage relationships (I/V) and reversal potentials (Erev) were determined using a 1-3 sec voltage ramp over the voltage range of -110 to +80 mV. […]

Another test deals with T2, GluClα (Caenorhabditis elegans, UniProt G5EBR3).
T2 sequence (G5EBR3 21-461): T1 sequence (G5EBR3 21-461)
As to the kind of experiment: Activation of current in Xenopus oocytes expressing homomeric GluClα (voltage clamp). The class given is cell-based, C. elegans. The arrangement: the full-length open reading frame of the GluCl cDNA encoding the GluClα (52,550 kDa) and GluClβ (49,900kDa) subunits; expressed in transfected cells; host or cells: Xenopus laevis oocytes injected with in vitro RNA. As for the experimental part:
as §1
Recordings were made at room temperature 2-10 days after injection. Unless otherwise indicated recordings were made in standard frog saline consisting of (mM): NaCl 115, KCl 2, MgCl2 1, CaCl2 1.8, HEPES 10 adjusted to pH 7.5 with NaOH. Oocytes were voltage-clamped using a standard two microelectrode amplifier (Dagan 8500 or TEV-200, Minneapolis,Minn.). Pipettes were filled with 3M KCl and had resistances between 0.5-3.0 M.OMEGA.. A plexiglass recording chamber (volume 200 μl) was constantly perfused at a rate of 10 ml/min. The recording chamber was connected to ground with a Ag/AgCl electrode directly, or through a 3M KCl agar bridge when extracellular chloride was varied. For low chloride solutions NaCl was replaced with equimolar concentrations of sodium isethionic acid. For low sodium solutions NaCl was replaced with equimolar KCl or choline Cl. Data were acquired and analyzed using PCLAMP with a TL-1 interface (Axon Instruments, Foster City, Calif.). Membrane current at a holding potential of -80 mV was recorded. The amplitude of drug-sensitive current was determined by subtracting the holding current at -80 mV from the peak current obtained in the presence of drug. Data were filtered at 30 Hz and sampled at 16.6 Hz. Current/voltage relationships (I/V) and reversal potentials (Erev) were determined using a 1-3 sec voltage ramp over the voltage range of -110 to +80 mV. For the ramps, data were filtered at 0.3-3 kHz and sampled at 160 Hz. Current in drug free solution was subtracted from current in the presence of drug to obtain drug-sensitive current/voltage relationships.
Electrophysiological properties were examined in oocytes injected with in vitro RNA from pGluClα and pGluClβ (FIG. 5).

Consider `N[C@@H](CCC(=O)O)C(=O)O` [glutamate], for which, in test [1], the “type of drug-sensitive current” value is “rapidly activating reversible”. In addition, the “Hill coefficient (glutamate) with coapplied IVMPO4” value at GluCl α&β (coapplication of IVMPO4 and glutamate) is 1.3. Also, on GluClα, the “response of homomeric GluClα channels” value was “do not respond”. Also, the “sensitivity of GluClα channels to glutamate” value on GluClα (glutamate concentrations as high as 10 mM) is given as “insensitive”.

For the compound ivermectin-4-O-phosphate [IVMPO4], the “time for maximal activation of IVMPO4-sensitive current” value in test [1] (poly(A)+ RNA) stood at 36 ± 3 s. In addition, the “type of drug-sensitive current” value in test [1] was “irreversible”. The “potentiation of glutamate-sensitive current” value on GluCl α&β (IVMPO4 5 nM) is 490±45%. Also, the “response of homomeric GluClα channels” value on GluClα is on record as “selectively responsive”. The “Hill coefficient (IVMPO4)” value at GluClα (GluClα) turned out to be 1.5. The concentration for a half-maximal effect (EC50) on GluClα (GluClα, read-out: EC50 for IVMPO4 activation of current) was 140 nM. Further, on GluClα (I/V, GluClα), the “voltage dependence of current” value is given as “essentially a linear voltage dependence”. Also, at GluClα (homomeric GluClα), the “time course for IVMPO4 activation” value amounted to 18 ± 1 s.
